We go through 6 compounds from article PMC8812913 (PLoS Neglected Tropical Diseases, 2022).

Read-outs that look alike come from different tables or passages of the source.

For series [1] the following is noted: male, Syrian golden, hamster, in vivo, po, 500 mg/kg.
For series [2] the following is noted: male, Syrian golden, hamster, in vivo, po, 500 mg/kg. This is another data set of the same source.
Series [3] can be described thus: in vivo. The following applies: male, Syrian golden, hamster, po, 500 mg/kg.
Series [4] can be described thus: in vivo. To be noted: male, Syrian golden, hamster, po, 500 mg/kg. The source holds these as a separate data set.
Series [5] relates to Yellow fever virus (YFV). The following applies: read-out: EC50, 50% inhibition of the virus-induced cytopathic effect (CPE); cited from earlier work.
In series [6] the test system is Yellow fever virus (YFV). To be noted: read-out: EC90 in reducing viral yield; cited from earlier work.
A further series concerns HCV clinical isolates. The following applies: cited from earlier work.
For series [7] the following is noted: cited from earlier work.
The conditions of series [8]: cited from earlier work. This is another data set of the same source.

Usually Tmax stands for the time at which the peak concentration occurs. A word on the AUC(0-t): it is exposure summed from dosing to a finite time, without extrapolation to infinity. A high value points to high exposure. By Cmax is commonly meant the peak of the concentration-time curve. In general, MRT last refers to the average time that molecules of a dose stay in the body. The term EC50 denotes the concentration needed to bring the measured effect to its halfway point. By EC90 is commonly meant the point of the concentration-response curve where the effect stands at 90%.

For `C[C@@]1(F)[C@H](O)[C@@H](CO)O[C@H]1n1cnc2c(=O)[nH]c(N)nc21` [AT-273], in series [1], the “Plasma concentration at 12 h post dose (Ctrough)” value (“Plasma concentration” below) amounted to 0.6 ± 0.1 nmol/mL. The Tmax in series [2] is given as 8.0 h. In the series “in vivo [3]”, the AUC(0-t) was found to be 10.8 ± 1.6 µM·h, the Cmax was 900 ± 100 nM, the MRT last came out at 9.8 ± 1.1 h and the Tmax is 5.7 ± 4 h. This compound also yielded an MRT last in the series “in vivo [4]” (MRT0-last) of 11.6 h.
Take `CNc1nc(N)nc2c1ncn2C1OC(COP(=O)(NC(C)C(=O)OC(C)C)Oc2ccccc2)C(O)C1(C)F` (stereo not drawn) [AT-281]: the “Plasma concentration” value in [1] came out at 0.006 ± 0.002 nmol/mL. Moreover, in [2], the “Concentration measured in brain tissue” value is given as “no AT-281 was detected”, the “Concentration measured in lung tissue” value is “no AT-281 was detected” and the MRT0-last came out at 4.5 h. Also, the EC50 in the series with Yellow fever virus (YFV) [5] is 310 nM. The EC90 with Yellow fever virus (YFV) [6] was 260 nM. Besides, in the series “in vivo [3]”, the AUC(0-t) is 1.7 ± 0.5 µM·h, the peak level (Cmax) was 600 ± 200 nM, the MRT last was 3.4 ± 1 h and the Tmax worked out at 2 ± 1.7 h. In addition, the MRT last in the series “in vivo [4]” (MRT0-last) was determined as 4.2 h. For the same compound, the Tmax in the series “in vivo [4]” turned out to be 2 h.
For `CNc1nc(N)nc2c1ncn2[C@@H]1O[C@H](COP(=O)(N[C@@H](C)C(=O)OC(C)C)Oc2ccccc2)[C@@H](O)[C@@]1(C)F.CNc1nc(N)nc2c1ncn2[C@@H]1O[C@H](COP(=O)(N[C@@H](C)C(=O)OC(C)C)Oc2ccccc2)[C@@H](O)[C@@]1(C)F.O=S(=O)(O)O` (stereo partly drawn) [AT-527], the “Fold more potent than sofosbuvir” value in the series with HCV clinical isolates was “up to 58 fold”.
On to `CNc1nc(N)nc2c1ncn2C1OC(COP(=O)(O)NC(C)C(=O)O)C(O)C1(C)F` (stereo not drawn) [AT-551], for which the “Plasma concentration” value in series [1] is listed as 3.4 ± 1.7 nmol/mL. Besides, the Tmax in series [2] is 2.0 h. In addition, in “in vivo [3]”, the AUC(0-t) was 114 ± 22.1 µM·h, the concentration peaked (Cmax) at 52400 ± 23500 nM, the MRT last is 4.6 ± 1.5 h and the Tmax was found to be 0.5 h. The compound further had an MRT last in the series “in vivo [4]” (MRT0-last) of 8.5 h.
On to `CNc1nc(N)nc2c1ncn2C1OC(COP(=O)(NC(C)C(=O)OC(C)C)Oc2ccccc2)C(O)C1(C)F` (stereo not drawn) [AT-752], for which the Alive/total (21 days) is given as 5/5. The compound further returned an ALT (hamster, in vivo) of 53 ± 5 IU/L. Moreover, under “hamster, in vivo, 1000 mg/kg”, the “Toxicity, as evidenced by weight loss or mortality” value is reported as “no toxicity”. Also, the “Half-life in rodent plasma” value in series [7] is recorded as less than 3 min. In addition, the “Half-life in primate plasma” value in [8] is on record as greater than 280 min.
In the case of `C[C@@]1(F)[C@H](O)[C@@H](COP(=O)(O)OP(=O)(O)OP(=O)(O)O)O[C@H]1n1cnc2c(=O)[nH]c(N)nc21` [AT-9010], in series [2], the “Concentration measured in brain tissue” value is “no AT-9010 detected”. Further, the values for the MRT last in the series “in vivo [4]” (MRT0-last) and in the series “in vivo [4]” (Mean residence times (MRT0-last) across tissues) were 11 h and 7 to 11 h, respectively. For the same compound, the Tmax in “in vivo [4]” amounted to 8 h.
